Test systems include A498; CAKI-1; EKVX; HCT-15; HOP-62; HOP-92; M14; OVCAR-3; OVCAR-4; OVCAR-8; SF-295; SK-MEL-2; SNB-19; SR; U-251; UACC-257; UO-31; HT-29; NCI-H522; Malme-3M.
Common to all, as to experiment: growth of human tumour cells (NCI), 48 h

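96-well plates; 48 h exposure; 5 concentrations. Endpoints by linear interpolation between flanking doses. Not reached: highest tested concentration assigned. The concentration for 50% growth inhibition is given as GI50.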 Active and inactive are the calls of the source. Cut-off read from the data, not from the text of the source: active = GI50 up to about 1.1 µM and inactive = higher.

The values below come from ChEMBL document CHEMBL1201862, “PubChem BioAssay data set” (2004).

Regarding `CN(C)CCCn1c(-c2ccc(Br)cc2)cs/c1=N\c1ccccc1`, the GI50 was 8.75 µM (inactive) with A498; 10.2 µM (inactive) in the assay on CAKI-1; 10.8 µM (inactive) in the assay with EKVX; 21.1 µM with HCT-15; 12.9 µM (inactive) with HOP-62; 15.2 µM (inactive) with HOP-92. The GI50 was 12.6 µM (inactive) in the assay on M14; 10.6 µM (inactive) in the assay with OVCAR-3; 16.1 µM (inactive) in the assay with OVCAR-4; 15.9 µM (inactive) with OVCAR-8; 11.2 µM (inactive) with SF-295; 15.7 µM (inactive) with SK-MEL-2. The GI50 with SNB-19 is 14.5 µM (inactive); in the assay with SR, 14 µM (inactive); in the assay on U-251, 49.2 µM (inactive); with UACC-257, 14.6 µM (inactive); in the assay on UO-31, 10.4 µM (inactive).

As for `CC(C)N(C)C(=O)C12C3C4C1C1C2C3C41C#N` (stereo not given), the GI50 is > 100 µM (inactive) in the assay with A498; > 100 µM (inactive) in the assay with CAKI-1; > 100 µM (inactive) in the assay with EKVX; over 100 µM in the assay on HCT-15; > 100 µM (inactive) with HOP-62; > 100 µM (inactive) in the assay on HOP-92. In addition, the GI50 in the assay with HT-29, in the assay with M14, with NCI-H522, in the assay with OVCAR-3, with OVCAR-4 and in the assay with OVCAR-8 was > 100 µM (inactive) throughout. Also, the GI50 in the assay on SF-295, with SK-MEL-2, in the assay with SNB-19, in the assay with SR, in the assay with U-251 and with UACC-257 was > 100 µM (inactive) throughout. In addition, the GI50 in the assay with UO-31 is > 100 µM (inactive).

On to `CCOC(=O)c1csc(NC(=O)CN2CCCC2)n1`, for which the GI50 in the assay with A498 was > 100 µM (inactive); in the assay with CAKI-1 it was > 100 µM (inactive); in the assay on EKVX it was > 100 µM (inactive); with HCT-15 it was over 100 µM; in the assay with HOP-62, > 100 µM (inactive); with HOP-92 it was > 100 µM (inactive). In addition, the GI50 in the assay with HT-29, in the assay on M14, in the assay with OVCAR-3, with OVCAR-4, with OVCAR-8 and in the assay on SF-295 was > 100 µM (inactive) in each case. The GI50 with SK-MEL-2, with SNB-19, in the assay on SR, in the assay with U-251, in the assay with UACC-257 and in the assay with UO-31 was > 100 µM (inactive) throughout.

As to `O=S(O)CCCSSSCCCS(=O)O`, the GI50 in the assay on A498, in the assay on EKVX, in the assay with HOP-62, in the assay on HT-29, in the assay on M14 and in the assay with Malme-3M was > 100 µM (inactive) each time. In addition, the GI50 with NCI-H522, in the assay on OVCAR-3, in the assay on OVCAR-4, in the assay on SK-MEL-2, in the assay with SNB-19 and in the assay with SR was > 100 µM (inactive) throughout. The GI50 in the assay with U-251, in the assay with UACC-257 and in the assay on UO-31 was > 100 µM (inactive) each time.

Turning to `Cn1c(=O)n2n(c1=O)C(C)(C13CC4CC(CC(C4)C1)C3)C13CC4CC(CC1C4)CC23` (stereo not given), the GI50 with A498 is > 100 µM (inactive); in the assay on CAKI-1 it was > 100 µM (inactive); with EKVX, > 100 µM (inactive); with HCT-15, over 100 µM; in the assay on HOP-62, > 100 µM (inactive); with HOP-92, > 100 µM (inactive). Moreover, the GI50 in the assay with HT-29, with M14, in the assay with OVCAR-3, in the assay on OVCAR-8, in the assay on SF-295 and in the assay with SK-MEL-2 was > 100 µM (inactive) throughout. Further, the GI50 in the assay on SNB-19, in the assay with SR, in the assay with U-251, with UACC-257 and in the assay on UO-31 was > 100 µM (inactive) each time.

Regarding `CN(C)c1cccc2c1C(=O)C=CC21CCc2ccc(N(C)C)c3c(N(C)C)ccc1c23` (stereo not given), the GI50 in the assay with A498 was 4.47 µM (inactive); in the assay on CAKI-1, 21.4 µM (inactive); with EKVX it was 20 µM (inactive); in the assay on HOP-62, 14.5 µM (inactive); with HOP-92, 12.3 µM (inactive); in the assay with HT-29, 13.1 µM (inactive). Also, the GI50 with M14 was 14.2 µM (inactive); with Malme-3M, 11.5 µM (inactive); in the assay on OVCAR-3, 8.34 µM (inactive); in the assay on OVCAR-4, 14.8 µM (inactive); with OVCAR-8, 13.7 µM (inactive); in the assay with SF-295 it was 18.8 µM (inactive). Also, the GI50 with SNB-19 is 15.2 µM (inactive); in the assay with SR it was 12 µM (inactive); with UACC-257, 11.9 µM (inactive); in the assay on UO-31 it was 11.9 µM (inactive).

`Cc1cc2nc3c(C(O)CO)nn(-c4ccccc4)c3nc2cc1C` (stereo not given): the GI50 in the assay on A498 is 12.1 µM (inactive); with CAKI-1, 15.8 µM (inactive); with EKVX it was 19.6 µM (inactive); in the assay on HCT-15, 14.9 µM; in the assay with HOP-62, 19.4 µM (inactive); in the assay on HOP-92 it was 15.5 µM (inactive). The GI50 is 15 µM (inactive) in the assay on HT-29; 31.3 µM (inactive) in the assay with M14; 22.6 µM (inactive) in the assay with NCI-H522; 15.8 µM (inactive) in the assay on OVCAR-3; 20.2 µM (inactive) in the assay with OVCAR-4; 23.2 µM (inactive) in the assay on OVCAR-8. For the same compound, the GI50 with SF-295 is 15.7 µM (inactive); in the assay on SK-MEL-2, 21.4 µM (inactive); in the assay on SNB-19 it was 22.9 µM (inactive); in the assay on SR it was 6.65 µM (inactive); in the assay with U-251, 15.2 µM (inactive); in the assay on UACC-257, 22 µM (inactive). The GI50 in the assay on UO-31 is 15.1 µM (inactive).

Regarding `CC(C)NC(=O)OCc1nnn2c1CCC2`, the GI50 is > 100 µM (inactive) with EKVX; over 100 µM in the assay on HCT-15; > 100 µM (inactive) in the assay on HOP-62; 74 µM (inactive) in the assay on HOP-92; > 100 µM (inactive) in the assay on HT-29; > 100 µM (inactive) with M14. Also, the GI50 in the assay with Malme-3M, with NCI-H522, in the assay on OVCAR-3, in the assay with OVCAR-4, in the assay with OVCAR-8 and in the assay on SF-295 was > 100 µM (inactive) in each case. Moreover, the GI50 in the assay on SK-MEL-2, with SR, in the assay on U-251, in the assay on UACC-257 and with UO-31 was > 100 µM (inactive) each time.

As to `CCOC(=O)c1csc(NC(=O)CCN2CCN(C)CC2)n1`, the GI50 is > 100 µM (inactive) in the assay on A498; 64.1 µM (inactive) in the assay with CAKI-1; over 100 µM with HCT-15; > 100 µM (inactive) in the assay on HOP-62; > 100 µM (inactive) in the assay on HOP-92; 62.1 µM (inactive) in the assay with HT-29. The GI50 with M14, in the assay with OVCAR-3, in the assay with OVCAR-4, in the assay with OVCAR-8, in the assay with SF-295 and in the assay with SK-MEL-2 was > 100 µM (inactive) throughout. In addition, the GI50 with SNB-19 is > 100 µM (inactive); in the assay on SR, 74.3 µM (inactive); with U-251, > 100 µM (inactive); in the assay on UACC-257, > 100 µM (inactive); with UO-31, > 100 µM (inactive).

Consider `O=C1CC2(CCC(O)(c3ccc4ccccc4c3)C(C(=O)c3ccc4ccccc4c3)C2)C(=O)c2ccccc2N1` (stereo not given), for which the GI50 was > 100 µM (inactive) in the assay on A498; > 100 µM (inactive) in the assay on CAKI-1; > 100 µM (inactive) in the assay on EKVX; over 10 µM in the assay on HCT-15; > 100 µM (inactive) with HOP-62; 5.69 µM (inactive) in the assay on HOP-92. Moreover, the GI50 is > 100 µM (inactive) with HT-29; 53.1 µM (inactive) with M14; > 100 µM (inactive) with Malme-3M; > 100 µM (inactive) in the assay on OVCAR-3; > 100 µM (inactive) in the assay with OVCAR-8; > 100 µM (inactive) with SF-295. Further, the GI50 in the assay on SK-MEL-2, in the assay on SNB-19, with SR, with U-251, in the assay on UACC-257 and in the assay with UO-31 was > 100 µM (inactive) throughout.

Regarding `c1ccc2c(c1)c1c(n2CCOCCCN2CCCCC2)CCCC1`, the GI50 in the assay on A498 was 25.8 µM (inactive); in the assay on CAKI-1, 18 µM (inactive); with EKVX, 17.1 µM (inactive); in the assay on HCT-15 it was 14.2 µM; with HOP-62, 16.3 µM (inactive); in the assay with HOP-92 it was 22.7 µM (inactive). The GI50 in the assay with HT-29 is 12 µM (inactive); with M14, 27.9 µM (inactive); with Malme-3M, 18 µM (inactive); in the assay on NCI-H522 it was 15.3 µM (inactive); in the assay on OVCAR-3 it was 13.2 µM (inactive); in the assay on OVCAR-4 it was 12.5 µM (inactive). The GI50 is 17.6 µM (inactive) in the assay with OVCAR-8; 18.7 µM (inactive) in the assay on SK-MEL-2; 27.5 µM (inactive) in the assay with SNB-19; 15.2 µM (inactive) in the assay with SR; 16 µM (inactive) in the assay with U-251; 16.8 µM (inactive) in the assay on UACC-257. Moreover, the GI50 in the assay on UO-31 was 12.6 µM (inactive).

With `O=C(c1ccccc1)c1cc(Cl)ccc1NCn1nnc2ccccc21`, the GI50 is 65.2 µM (inactive) in the assay on A498; > 100 µM (inactive) in the assay with EKVX; 42.8 µM in the assay with HCT-15; > 100 µM (inactive) in the assay on HOP-62; 91.4 µM (inactive) in the assay with HOP-92; 51.1 µM (inactive) in the assay with HT-29. Besides, the GI50 with M14 is 88.7 µM (inactive); with NCI-H522 it was 47.8 µM (inactive); in the assay with OVCAR-3, 93.3 µM (inactive); with OVCAR-4 it was 9.46 µM (inactive); in the assay with OVCAR-8, > 100 µM (inactive); in the assay with SF-295 it was 85.3 µM (inactive). Moreover, the GI50 is 29 µM (inactive) with SK-MEL-2; > 100 µM (inactive) in the assay on SNB-19; 35.6 µM (inactive) in the assay with SR; 55.2 µM (inactive) with U-251; 55 µM (inactive) in the assay on UACC-257; 35.8 µM (inactive) in the assay on UO-31.
